Laboratory results: patent US9439975B2, “Small efficient cell penetrating peptides derived from the scorpion toxin maurocalcine” (Commissariat A L'Energie Atomique Et Aux Energies …, priority 2011, dated 2016)
Square brackets hold non-standard residues; d marks the D form. Ends that are not written are not given here. Abu = CC[C@H](N)C(=O)O

What was measured:
cells = conditions: cited from earlier work
[1] = upon intravenous injection; cited from earlier work
proteoglycans = conditions: cited from earlier work
[2] = molecular target: ryanodine receptor type 1 (RyR1) (Oryctolagus cuniculus, UniProt P11716); conditions: earlier reports; cited from earlier work
[3] = in vitro and in vivo; cited from earlier work
CHO cells = test: MTT assay of cell viability; assay type: cell-based, Chinese hamster; conditions: 1 or 10 μM peptide, 24 hrs
Procedure: Cells were seeded into 96-well micro plates at a density of approximately 8×10^4 cells/well. […] Control wells containing cell culture medium alone or with cells, both without peptide addition, were included in each experiment. 0.1% saponin was used as toxic agent for comparison. The cells were then incubated with 3-(4, 5-dimethylthiazol-2-yl)-2, 5-diphenyl-tetrazolium bromide (MTT) for 30 min. Conversion of MTT into purple colored MTT formazan by the living cells indicates the extent of cell viability. The crystals were dissolved with dimethyl sulfoxide (DMSO) and the optical density was measured at 540 nm using a microplate reader (Biotek ELx-800, MANDEL SCIENTIFIC INC.) for quantification of cell viability. All assays were run in triplicates.

Chain of ryanodine receptor type 1 (RyR1) (P11716 whole entry): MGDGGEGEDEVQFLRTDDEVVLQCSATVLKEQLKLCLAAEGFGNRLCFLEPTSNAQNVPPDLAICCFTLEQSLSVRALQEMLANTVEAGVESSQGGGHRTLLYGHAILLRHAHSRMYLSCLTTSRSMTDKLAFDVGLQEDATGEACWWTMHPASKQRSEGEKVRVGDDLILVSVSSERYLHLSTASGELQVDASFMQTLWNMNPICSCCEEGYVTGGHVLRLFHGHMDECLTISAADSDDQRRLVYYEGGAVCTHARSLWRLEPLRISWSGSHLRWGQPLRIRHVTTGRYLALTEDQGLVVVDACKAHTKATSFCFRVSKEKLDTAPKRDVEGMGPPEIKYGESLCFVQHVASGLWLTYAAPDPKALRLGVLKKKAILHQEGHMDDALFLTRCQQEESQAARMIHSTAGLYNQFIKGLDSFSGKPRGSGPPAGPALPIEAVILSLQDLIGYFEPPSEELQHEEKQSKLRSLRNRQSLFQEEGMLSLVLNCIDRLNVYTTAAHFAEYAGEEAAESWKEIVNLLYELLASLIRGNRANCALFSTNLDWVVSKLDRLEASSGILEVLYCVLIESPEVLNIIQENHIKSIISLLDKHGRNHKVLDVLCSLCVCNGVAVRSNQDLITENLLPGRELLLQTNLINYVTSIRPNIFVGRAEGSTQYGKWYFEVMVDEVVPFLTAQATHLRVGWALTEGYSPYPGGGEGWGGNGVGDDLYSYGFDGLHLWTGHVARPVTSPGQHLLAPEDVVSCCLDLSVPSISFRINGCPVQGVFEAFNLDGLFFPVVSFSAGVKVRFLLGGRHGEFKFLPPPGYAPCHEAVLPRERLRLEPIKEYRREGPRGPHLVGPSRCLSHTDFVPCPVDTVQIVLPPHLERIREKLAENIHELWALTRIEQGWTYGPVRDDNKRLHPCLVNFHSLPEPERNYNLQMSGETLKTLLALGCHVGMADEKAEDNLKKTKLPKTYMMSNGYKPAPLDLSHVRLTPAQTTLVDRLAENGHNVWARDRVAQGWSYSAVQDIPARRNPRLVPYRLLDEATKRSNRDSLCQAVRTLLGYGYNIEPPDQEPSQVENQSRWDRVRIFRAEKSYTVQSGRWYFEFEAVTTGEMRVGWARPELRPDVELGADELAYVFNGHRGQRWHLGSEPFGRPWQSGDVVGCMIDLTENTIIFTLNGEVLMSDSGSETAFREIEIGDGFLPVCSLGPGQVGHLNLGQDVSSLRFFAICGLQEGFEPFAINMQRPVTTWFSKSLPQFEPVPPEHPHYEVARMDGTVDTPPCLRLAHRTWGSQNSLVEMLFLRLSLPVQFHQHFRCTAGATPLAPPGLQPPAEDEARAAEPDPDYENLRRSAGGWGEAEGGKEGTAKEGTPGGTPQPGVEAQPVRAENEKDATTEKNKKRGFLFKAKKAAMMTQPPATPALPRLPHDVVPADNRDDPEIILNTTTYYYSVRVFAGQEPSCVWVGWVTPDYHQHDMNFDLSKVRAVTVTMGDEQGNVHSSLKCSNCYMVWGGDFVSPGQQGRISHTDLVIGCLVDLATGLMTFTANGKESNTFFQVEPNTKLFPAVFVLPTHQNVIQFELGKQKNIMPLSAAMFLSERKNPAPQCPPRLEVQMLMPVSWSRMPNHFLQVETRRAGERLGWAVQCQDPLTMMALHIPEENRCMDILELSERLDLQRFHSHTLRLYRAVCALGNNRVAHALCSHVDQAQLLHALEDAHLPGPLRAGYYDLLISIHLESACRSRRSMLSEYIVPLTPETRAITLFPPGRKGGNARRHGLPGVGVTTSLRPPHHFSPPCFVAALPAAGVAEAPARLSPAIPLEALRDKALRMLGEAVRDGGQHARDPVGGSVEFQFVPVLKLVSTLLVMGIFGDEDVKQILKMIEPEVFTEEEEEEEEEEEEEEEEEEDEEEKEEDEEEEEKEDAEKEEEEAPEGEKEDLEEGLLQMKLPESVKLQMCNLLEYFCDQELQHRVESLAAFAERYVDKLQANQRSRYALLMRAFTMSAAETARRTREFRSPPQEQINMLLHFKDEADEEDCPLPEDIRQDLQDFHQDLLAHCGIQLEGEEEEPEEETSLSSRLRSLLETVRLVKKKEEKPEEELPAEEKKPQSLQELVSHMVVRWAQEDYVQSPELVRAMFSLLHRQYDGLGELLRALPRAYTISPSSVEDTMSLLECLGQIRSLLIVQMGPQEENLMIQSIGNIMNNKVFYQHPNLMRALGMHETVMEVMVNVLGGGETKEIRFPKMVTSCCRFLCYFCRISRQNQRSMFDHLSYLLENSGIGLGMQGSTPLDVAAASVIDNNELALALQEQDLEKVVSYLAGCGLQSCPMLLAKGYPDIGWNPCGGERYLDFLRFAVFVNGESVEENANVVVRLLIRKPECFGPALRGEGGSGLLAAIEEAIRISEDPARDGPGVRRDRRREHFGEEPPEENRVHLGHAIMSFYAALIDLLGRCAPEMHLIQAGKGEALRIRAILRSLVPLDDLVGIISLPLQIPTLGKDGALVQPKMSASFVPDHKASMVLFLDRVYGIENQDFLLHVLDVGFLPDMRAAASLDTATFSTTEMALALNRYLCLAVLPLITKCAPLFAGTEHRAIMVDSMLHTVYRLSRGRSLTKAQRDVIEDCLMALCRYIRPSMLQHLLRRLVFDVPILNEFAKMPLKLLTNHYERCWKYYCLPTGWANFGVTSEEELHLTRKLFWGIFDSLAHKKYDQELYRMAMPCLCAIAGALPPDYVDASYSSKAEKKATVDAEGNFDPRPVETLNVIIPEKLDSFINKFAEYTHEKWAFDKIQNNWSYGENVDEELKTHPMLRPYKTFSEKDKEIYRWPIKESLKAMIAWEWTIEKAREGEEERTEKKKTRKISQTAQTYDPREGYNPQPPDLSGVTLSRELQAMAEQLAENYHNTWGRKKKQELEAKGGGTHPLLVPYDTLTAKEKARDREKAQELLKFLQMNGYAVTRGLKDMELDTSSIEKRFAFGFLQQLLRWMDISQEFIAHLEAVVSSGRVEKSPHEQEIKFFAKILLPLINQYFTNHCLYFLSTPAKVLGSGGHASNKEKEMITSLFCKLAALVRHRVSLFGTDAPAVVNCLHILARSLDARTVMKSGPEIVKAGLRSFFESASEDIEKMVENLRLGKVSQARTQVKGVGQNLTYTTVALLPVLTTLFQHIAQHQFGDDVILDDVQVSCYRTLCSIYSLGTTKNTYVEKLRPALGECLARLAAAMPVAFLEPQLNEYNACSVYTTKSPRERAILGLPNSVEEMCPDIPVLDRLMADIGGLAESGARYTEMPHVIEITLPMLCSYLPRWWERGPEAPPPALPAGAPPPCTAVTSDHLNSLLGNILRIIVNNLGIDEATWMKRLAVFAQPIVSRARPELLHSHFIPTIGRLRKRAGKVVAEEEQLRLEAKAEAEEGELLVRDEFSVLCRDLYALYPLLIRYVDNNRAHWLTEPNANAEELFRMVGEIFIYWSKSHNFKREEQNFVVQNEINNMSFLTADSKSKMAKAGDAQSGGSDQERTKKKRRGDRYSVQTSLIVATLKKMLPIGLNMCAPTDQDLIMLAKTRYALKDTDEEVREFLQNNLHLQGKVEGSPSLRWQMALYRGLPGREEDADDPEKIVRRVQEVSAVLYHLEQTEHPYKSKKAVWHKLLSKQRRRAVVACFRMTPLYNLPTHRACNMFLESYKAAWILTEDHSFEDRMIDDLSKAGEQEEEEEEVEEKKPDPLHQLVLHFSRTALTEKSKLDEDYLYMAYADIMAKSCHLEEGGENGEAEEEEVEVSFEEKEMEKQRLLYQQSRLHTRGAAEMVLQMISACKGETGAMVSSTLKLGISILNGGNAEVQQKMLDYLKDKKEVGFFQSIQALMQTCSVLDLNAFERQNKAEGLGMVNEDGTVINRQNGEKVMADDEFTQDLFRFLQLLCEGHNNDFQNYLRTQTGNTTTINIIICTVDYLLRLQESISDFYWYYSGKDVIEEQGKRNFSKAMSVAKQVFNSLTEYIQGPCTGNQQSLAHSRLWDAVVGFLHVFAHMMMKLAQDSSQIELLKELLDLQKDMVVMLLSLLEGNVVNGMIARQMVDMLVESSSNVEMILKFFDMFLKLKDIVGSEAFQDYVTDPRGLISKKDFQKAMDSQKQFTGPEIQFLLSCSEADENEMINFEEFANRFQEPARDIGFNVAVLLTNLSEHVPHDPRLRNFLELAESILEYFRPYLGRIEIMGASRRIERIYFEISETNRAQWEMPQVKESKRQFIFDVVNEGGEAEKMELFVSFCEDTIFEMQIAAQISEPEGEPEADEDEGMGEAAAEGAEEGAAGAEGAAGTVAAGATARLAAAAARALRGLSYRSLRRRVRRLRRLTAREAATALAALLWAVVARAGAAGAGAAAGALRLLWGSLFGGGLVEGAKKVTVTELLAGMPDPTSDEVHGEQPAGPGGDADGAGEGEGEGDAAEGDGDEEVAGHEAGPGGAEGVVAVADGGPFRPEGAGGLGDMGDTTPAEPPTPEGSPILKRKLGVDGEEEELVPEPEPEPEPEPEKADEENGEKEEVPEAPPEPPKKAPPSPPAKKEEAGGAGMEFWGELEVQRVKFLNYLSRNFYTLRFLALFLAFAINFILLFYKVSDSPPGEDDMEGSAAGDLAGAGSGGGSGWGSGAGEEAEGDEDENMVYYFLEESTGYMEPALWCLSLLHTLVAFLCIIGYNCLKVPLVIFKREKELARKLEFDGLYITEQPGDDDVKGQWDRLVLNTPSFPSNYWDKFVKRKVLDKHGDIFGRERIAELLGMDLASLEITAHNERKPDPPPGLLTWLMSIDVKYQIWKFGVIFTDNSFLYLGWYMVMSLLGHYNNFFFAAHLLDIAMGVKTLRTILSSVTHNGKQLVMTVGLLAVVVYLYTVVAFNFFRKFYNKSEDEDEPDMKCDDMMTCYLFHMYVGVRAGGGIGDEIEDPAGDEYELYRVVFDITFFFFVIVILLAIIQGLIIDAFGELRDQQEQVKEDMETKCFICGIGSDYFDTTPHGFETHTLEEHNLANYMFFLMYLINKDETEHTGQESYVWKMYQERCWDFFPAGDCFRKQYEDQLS

Row | Substance | cell penetration efficiency (cells; earlier reports) | stability in vivo [1] | affinity of interaction with proteoglycans (proteoglycans) | pharmacological action on / interaction with RyR1 [2] | associated toxicity [3] | cell toxicity, comparison (CHO cells) | amiloride sensitivity of cell entry (cells; streptavidine as cargo, earlier studies)
1 | GDCLPHLKLCKENKDCCSKKCKRRGTNIEKRCR [MCa] | penetrates into cells at very low concentrations | over 24 hrs | micromolar range | exquisite pharmacological activator | almost no associated toxicity | – | –
2 | KDaaSKKaKRRGC (KD[Abu][Abu]SKK[Abu]KRRGC) [MCaUF14-25-C] | – | – | – | – | – | slightly more toxic than 1 μM except for MCaUF14-25-C | –
3 | MCaUF1-33: unfolded full-length MCa, six Cys replaced by 2-aminobutyric acid (Abu) (GD[Abu]LPHLKL[Abu]KENKD[Abu][Abu]SKK[Abu]KRRGTNIEKR[Abu]R; not fully specified (residue 33)) | – | – | – | unable to interact with MCa's target, the ryanodine receptor RyR1 | – | – | largely sensitive to amiloride
